Assay results reported in article PMC4178217, “Quinoline 3-sulfonamides inhibit lactate dehydrogenase A and reverse aerobic glycolysis in cancer cells” (Cancer & Metabolism, 2013).
Like-named read-outs stand apart in the source and are kept apart here.

Experiments:
Snu398 cells [1] = experiment: Lactate production assay, Snu398 (RapidFire-MS); settings: Homo sapiens, SNU-398, read-out: lactate production EC50
Serotonin Receptor 5HT1B = Serotonin Receptor 5HT1B (Homo sapiens, UniProt P28222); experiment: Serotonin Receptor 5HT1B AG; settings: agonist; read-out: pEC50 Serotonin Receptor 5HT1B AG (converted)
Sequence of Serotonin Receptor 5HT1B (P28222 whole entry): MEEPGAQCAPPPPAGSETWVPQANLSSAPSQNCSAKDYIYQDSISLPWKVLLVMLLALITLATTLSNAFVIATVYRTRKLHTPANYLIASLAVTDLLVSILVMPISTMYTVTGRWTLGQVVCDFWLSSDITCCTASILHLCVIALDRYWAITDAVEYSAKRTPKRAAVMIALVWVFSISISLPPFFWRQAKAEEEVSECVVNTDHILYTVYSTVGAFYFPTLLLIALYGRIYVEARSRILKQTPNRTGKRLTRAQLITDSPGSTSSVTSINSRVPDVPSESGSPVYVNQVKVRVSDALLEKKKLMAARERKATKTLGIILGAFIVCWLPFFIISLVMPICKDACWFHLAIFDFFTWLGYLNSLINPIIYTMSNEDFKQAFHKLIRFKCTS
From the text: (§1) ANT = antagonist (pIC50), AG = agonist (pEC50). pIC50 and pEC50 are the negative logarithms10 of IC50 and EC50, respectively. Click here for file

cancer cell lines = experiment: Lactate production assay, panel of cancer cell lines; settings: Homo sapiens, read-out: lactate production EC50 across cell lines
Snu398 cells [2] = experiment: Compound cellular permeability assay, whole-cell extract; format: in vitro ADME, human; settings: Snu398 treated with 1 μM for 1.5 h
Protocol: Compound cellular permeability assays For cytosolic permeability assay, twelve million Snu398 cells were allowed to attach overnight and treated with DMSO control or 1 µM Compound 2 for 1.5 h in 1.7 mM glucose medium. The medium was removed, cells were washed in phosphate-buffered saline (PBS), and cytosolic extracts were prepared by solubilization in Qproteome lysis buffer (Qiagen, Valencia, CA). For whole-cell permeability assay, 75,000 Snu398 cells/well were plated in 96-well plates and treated with DMSO control or 1 µM compounds for 1.5h in low glucose medium. The medium was removed, cells were washed in PBS and solubilized in 50:50 mixture of methanol and acetonitrile. Compound concentration in the cytosolic or whole-cell extract was determined by LC/MS/MS analysis. An Acquity UPLC system (Waters Inc., Milford, MA) was coupled to an API 4000 or API 5000 triple-quad mass spectrometer (Applied Biosystems). […] Compound concentration in cells was determined by counting the number of cells in sample wells and assuming 3 pL/cell volume.

Sodium Channel NaV 1.5 = Sodium Channel NaV 1.5 (Homo sapiens, UniProt Q14524); experiment: Sodium Channel NaV 1.5 ANT; settings: antagonist; read-out: pIC50 Sodium Channel NaV 1.5 ANT (converted)
Sequence of Sodium Channel NaV 1.5 (Q14524 whole entry): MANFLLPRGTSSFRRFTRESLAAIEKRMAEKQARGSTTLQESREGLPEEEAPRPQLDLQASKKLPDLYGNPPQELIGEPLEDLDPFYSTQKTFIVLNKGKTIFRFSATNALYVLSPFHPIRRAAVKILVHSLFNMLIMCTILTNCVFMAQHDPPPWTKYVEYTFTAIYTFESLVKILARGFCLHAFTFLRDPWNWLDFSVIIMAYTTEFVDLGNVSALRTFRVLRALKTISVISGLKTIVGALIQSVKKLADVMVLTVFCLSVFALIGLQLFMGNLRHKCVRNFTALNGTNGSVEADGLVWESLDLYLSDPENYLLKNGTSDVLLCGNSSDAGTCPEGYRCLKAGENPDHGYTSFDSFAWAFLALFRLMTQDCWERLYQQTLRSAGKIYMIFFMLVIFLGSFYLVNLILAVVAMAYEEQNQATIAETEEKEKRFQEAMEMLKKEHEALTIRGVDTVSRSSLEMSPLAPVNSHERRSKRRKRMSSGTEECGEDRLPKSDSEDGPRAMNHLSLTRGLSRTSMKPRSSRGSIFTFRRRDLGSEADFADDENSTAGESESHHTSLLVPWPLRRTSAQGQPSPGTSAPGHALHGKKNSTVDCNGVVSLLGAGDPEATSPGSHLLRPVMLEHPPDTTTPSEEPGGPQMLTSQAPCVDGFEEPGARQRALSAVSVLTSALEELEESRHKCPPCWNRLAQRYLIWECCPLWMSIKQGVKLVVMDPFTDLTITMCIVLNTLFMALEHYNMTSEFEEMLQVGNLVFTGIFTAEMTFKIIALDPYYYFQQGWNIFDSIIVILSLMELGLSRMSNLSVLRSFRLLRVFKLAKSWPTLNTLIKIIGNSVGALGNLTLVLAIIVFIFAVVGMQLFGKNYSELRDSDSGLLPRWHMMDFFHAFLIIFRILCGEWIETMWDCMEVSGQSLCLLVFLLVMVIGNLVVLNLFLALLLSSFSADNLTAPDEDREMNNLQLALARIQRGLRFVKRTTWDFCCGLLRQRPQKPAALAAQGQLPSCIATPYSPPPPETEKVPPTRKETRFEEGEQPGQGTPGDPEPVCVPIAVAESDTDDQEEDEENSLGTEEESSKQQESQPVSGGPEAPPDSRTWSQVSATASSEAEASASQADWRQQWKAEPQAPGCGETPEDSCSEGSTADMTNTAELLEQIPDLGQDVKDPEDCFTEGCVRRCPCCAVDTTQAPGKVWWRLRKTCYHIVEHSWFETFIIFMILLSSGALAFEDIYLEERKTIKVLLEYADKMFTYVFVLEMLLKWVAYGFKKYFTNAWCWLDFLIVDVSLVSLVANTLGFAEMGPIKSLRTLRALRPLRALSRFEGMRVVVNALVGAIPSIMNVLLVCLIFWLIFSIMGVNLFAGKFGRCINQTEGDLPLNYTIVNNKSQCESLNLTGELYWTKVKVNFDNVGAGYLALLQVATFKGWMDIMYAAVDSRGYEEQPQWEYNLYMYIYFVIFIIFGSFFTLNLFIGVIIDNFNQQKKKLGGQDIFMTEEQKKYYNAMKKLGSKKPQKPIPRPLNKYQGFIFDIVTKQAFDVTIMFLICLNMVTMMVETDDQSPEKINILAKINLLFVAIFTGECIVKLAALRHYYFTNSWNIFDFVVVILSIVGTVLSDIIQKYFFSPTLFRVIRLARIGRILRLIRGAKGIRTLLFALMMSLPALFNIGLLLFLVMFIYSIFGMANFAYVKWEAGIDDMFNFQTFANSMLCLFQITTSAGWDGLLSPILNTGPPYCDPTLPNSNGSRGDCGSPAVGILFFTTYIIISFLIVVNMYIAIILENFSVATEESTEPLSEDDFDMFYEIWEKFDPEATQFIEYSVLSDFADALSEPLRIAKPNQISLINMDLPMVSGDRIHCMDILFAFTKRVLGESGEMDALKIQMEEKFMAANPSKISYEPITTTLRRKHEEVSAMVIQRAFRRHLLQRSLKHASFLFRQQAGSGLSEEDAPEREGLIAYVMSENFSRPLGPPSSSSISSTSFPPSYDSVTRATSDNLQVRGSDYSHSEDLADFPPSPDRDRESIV
From the text: as §1

PK analysis in rats = format: in vivo, male Sprague–Dawley rats
Protocol: All studies were conducted after review by the Institutional Animal Care and Use Committee at GlaxoSmithKline (GSK) and in accordance with the GSK Policy on the Care, Welfare and Treatment of Laboratory Animals.

[3] = biological target: Nicotinic Ach Receptor A1 (Homo sapiens, UniProt P02708+P07510+Q07001); experiment: Nicotinic Ach Receptor A1 ANT
Sequence of Nicotinic Ach Receptor A1 (P02708 21-457): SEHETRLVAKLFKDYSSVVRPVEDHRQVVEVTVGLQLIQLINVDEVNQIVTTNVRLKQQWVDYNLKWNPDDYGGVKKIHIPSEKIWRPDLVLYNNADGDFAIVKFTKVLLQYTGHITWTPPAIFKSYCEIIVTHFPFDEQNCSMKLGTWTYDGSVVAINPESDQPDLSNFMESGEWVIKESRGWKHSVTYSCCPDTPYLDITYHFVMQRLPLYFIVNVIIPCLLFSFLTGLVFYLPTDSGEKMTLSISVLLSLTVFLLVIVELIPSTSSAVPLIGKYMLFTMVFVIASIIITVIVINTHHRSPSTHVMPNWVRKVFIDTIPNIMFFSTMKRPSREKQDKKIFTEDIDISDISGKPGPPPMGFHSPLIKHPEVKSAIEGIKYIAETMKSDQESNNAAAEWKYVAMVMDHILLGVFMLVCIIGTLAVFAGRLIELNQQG
Sequence of Nicotinic Ach Receptor A1 (P11230 24-501 partner): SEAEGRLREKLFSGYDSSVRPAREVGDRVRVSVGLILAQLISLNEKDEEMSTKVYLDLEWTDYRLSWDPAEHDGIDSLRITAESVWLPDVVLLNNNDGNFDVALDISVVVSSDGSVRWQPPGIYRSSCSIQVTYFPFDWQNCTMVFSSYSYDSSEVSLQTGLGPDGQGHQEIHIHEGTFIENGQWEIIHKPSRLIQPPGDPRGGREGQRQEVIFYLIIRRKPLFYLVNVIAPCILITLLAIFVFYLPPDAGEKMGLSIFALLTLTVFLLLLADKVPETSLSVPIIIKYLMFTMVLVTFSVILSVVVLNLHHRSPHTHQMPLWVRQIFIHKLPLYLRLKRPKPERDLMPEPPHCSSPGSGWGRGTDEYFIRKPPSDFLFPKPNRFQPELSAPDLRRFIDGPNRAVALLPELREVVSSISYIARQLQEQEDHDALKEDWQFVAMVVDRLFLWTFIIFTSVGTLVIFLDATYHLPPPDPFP
Sequence of Nicotinic Ach Receptor A1 (Q07001 22-517): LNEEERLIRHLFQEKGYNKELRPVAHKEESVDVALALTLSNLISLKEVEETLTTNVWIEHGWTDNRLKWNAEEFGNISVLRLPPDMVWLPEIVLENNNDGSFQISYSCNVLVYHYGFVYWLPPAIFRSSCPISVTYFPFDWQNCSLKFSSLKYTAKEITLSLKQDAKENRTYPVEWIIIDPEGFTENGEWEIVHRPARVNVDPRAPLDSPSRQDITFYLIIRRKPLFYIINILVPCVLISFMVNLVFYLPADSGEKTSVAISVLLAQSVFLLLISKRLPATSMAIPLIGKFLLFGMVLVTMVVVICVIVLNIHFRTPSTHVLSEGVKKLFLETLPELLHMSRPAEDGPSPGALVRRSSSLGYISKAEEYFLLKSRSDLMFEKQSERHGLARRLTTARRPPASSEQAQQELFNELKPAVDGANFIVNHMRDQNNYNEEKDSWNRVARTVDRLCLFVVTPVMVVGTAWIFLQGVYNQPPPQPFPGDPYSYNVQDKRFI
Sequence of Nicotinic Ach Receptor A1 (P07510 23-517): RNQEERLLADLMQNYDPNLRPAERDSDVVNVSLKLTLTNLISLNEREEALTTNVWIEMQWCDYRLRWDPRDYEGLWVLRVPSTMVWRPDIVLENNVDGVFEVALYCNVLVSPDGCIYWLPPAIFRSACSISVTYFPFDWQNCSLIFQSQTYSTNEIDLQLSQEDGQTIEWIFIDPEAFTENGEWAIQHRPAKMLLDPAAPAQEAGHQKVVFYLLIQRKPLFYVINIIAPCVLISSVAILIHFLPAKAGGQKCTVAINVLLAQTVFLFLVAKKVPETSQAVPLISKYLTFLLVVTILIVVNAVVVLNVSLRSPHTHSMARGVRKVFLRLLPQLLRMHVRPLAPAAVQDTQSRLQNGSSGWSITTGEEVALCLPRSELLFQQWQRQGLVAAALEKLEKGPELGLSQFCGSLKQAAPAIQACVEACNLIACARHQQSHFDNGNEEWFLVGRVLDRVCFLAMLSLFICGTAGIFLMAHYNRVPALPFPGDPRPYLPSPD
From the text: as §1

HCC1937 cells = experiment: ECAR after mitochondrial inhibition, breast cancer lines and HCC1937 isogenic shRNA lines; format: cell-based, human
Protocol: A2780 were obtained from the European Collection of Cell Cultures (ECACC, Porton Down, UK), IGROV-1 and U251 were from the National Cancer Institute (NCI, Bethesda, MD, USA), and all other cell lines were from American Type Culture Collection (ATCC, Manassas, VA, USA). The cell lines were authenticated as previously described. All cell lines were maintained in a 37°C 5% CO2-95% humidified air incubator. Breast cancer cell lines were cultured in DMEM (Life Technologies, Carlsbad, CA, USA) supplemented with 5% FBS (Sigma-Aldrich, St. Louis, MO, USA). All other cell lines were maintained in R10 medium (Roswell Park Memorial Institute medium (RPMI)-1640 (Life Technologies) supplemented with 10% FBS). MCF10A cells were supplemented with additional cholera toxin (100 ng/mL), hydrocortisone ([…]), insulin (10 μg/mL), and epidermal growth factor (EGF) (20 ng/mL). […]
For XF96 experiments breast cancer cells were seeded in DMEM without bicarbonate at 16,000/well in XF96 V3 PET plates (Seahorse Biosciences) coated with CellTak (BD Biosciences, San Jose, CA, USA). […] The medium was exchanged with DMEM without bicarbonate prior to readings on the XF96 Analyzer (Seahorse Biosciences).

Opioid Receptor m = Opioid Receptor m (Homo sapiens, UniProt P35372); experiment: Opioid Receptor m ANT; settings: antagonist; read-out: pIC50 Opioid Receptor m ANT (converted)
From the text: as §1

Opioid Receptor k = Opioid Receptor k (Homo sapiens, UniProt P41145); experiment: Opioid Receptor k ANT; settings: antagonist; read-out: pIC50 Opioid Receptor k ANT (converted)
From the text: as §1

Dopamin Receptor D2 = Dopamin Receptor D2 (Homo sapiens, UniProt P14416); experiment: Dopamin receptor D2 ANT; settings: antagonist; read-out: pIC50 Dopamin receptor D2 ANT (converted)
From the text: as §1

Phosphodiesterase 4B = Phosphodiesterase 4B (Homo sapiens, UniProt Q07343); experiment: Phosphodiesterase 4B ANT; format: biochemical; settings: antagonist; read-out: pIC50 Phosphodiesterase 4B ANT (converted)
Sequence of Phosphodiesterase 4B (Q07343 whole entry): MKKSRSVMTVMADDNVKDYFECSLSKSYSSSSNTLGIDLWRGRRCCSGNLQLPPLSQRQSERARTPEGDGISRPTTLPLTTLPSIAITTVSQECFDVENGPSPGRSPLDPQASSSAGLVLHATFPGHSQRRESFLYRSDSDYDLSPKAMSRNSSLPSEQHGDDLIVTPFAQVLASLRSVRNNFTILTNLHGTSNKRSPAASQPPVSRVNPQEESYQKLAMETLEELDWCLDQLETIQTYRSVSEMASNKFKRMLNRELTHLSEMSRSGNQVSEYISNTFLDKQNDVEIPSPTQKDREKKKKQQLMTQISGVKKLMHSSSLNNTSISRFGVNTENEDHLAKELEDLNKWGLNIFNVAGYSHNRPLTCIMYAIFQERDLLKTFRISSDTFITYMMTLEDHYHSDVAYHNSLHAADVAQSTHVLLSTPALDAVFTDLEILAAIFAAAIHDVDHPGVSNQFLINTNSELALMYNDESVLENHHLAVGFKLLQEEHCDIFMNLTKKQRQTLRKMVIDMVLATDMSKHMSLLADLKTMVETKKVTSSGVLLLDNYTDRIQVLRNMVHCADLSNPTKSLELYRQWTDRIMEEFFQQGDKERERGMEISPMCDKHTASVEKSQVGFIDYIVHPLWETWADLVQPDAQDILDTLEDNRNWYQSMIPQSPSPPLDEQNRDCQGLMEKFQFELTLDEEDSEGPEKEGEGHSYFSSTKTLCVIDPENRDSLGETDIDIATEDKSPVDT
From the text: as §1

recombinant human LDHA [4] = biological target: T1, recombinant human LDHA (Homo sapiens, UniProt P00338); experiment: recombinant human LDHA enzyme assay (lactate to pyruvate, NADH via diaphorase/resazurin)
recombinant human LDHB = recombinant human LDHB (Homo sapiens, UniProt P07195); experiment: recombinant human LDHB enzyme assay (lactate to pyruvate, NADH via diaphorase/resazurin)
recombinant human LDHA [5] = biological target: T1, recombinant human LDHA; experiment: LDHA enzymatic assay with increasing levels of NADH; format: biochemical; settings: NADH 120 μM; read-out: LDHA IC50 at high NADH
Protocol: LDHA enzymatic assay with increasing levels of NADH The following reaction was assembled in clear-bottom 96 well plate: 50 mM phosphate buffer pH 7.0, 50 mM NaCl, 0.25 mM CHAPS, 200 µM NaPyruvate, 250 pM recombinant human LDHA, and the indicated amounts of NADH and Compound 2. Absorbance change due to NADH conversion to NAD^+ was read on SpectraMax M2 (Molecular Devices, Sunnyvale, CA) at 340 nm every 40 sec for 6 min.

SMILES | EC50 (Snu398 cells [1]) | EC50 (Serotonin Receptor 5HT1B) | EC50 (cancer cell lines) | apparent intracellular concentration versus medium (Snu398 cells [2]) | IC50 (Sodium Channel NaV 1.5) | clearance (PK analysis in rats; male, Sprague-Dawley, rat, whole blood, IV infusion 0.25 mg/kg) | blood compound level (PK analysis in rats; oral 50 mg/kg, detection limit 2.5 ng/mL) | IC50 [3] | sensitivity (ECAR) with LDHA knockdown (HCC1937 cells; HCC1937 stable LDHA shRNA) | sensitivity (ECAR) with LDHB knockdown (HCC1937 cells; HCC1937 stable LDHB shRNA) | IC50 (Opioid Receptor m) | IC50 (Opioid Receptor k) | IC50 (Dopamin Receptor D2) | IC50 (Phosphodiesterase 4B) | IC50 (recombinant human LDHA [4]) | IC50 ([3]; antagonist, read-out: pIC50 Nicotinic Ach Receptor A1 ANT (converted)) | IC50 (recombinant human LDHB) | IC50 (recombinant human LDHA [5])
COc1ncc(-c2ccc3c(Nc4cc(Oc5cc(F)cc(F)c5)cc(C(=O)O)c4)c(S(=O)(=O)NC4CC4)cnc3c2)c(OC)n1 [Compound 1] | 0.4 ± 0.1 µM | 31.6 µM | ≥ 0.4 µM | higher apparent intracellular concentrations than that of the medium | 100 µM | 69 mL/min/kg | ≤ 2.5 ng/mL | 50.1 µM | did not change their sensitivity | more sensitive | 63.1 µM | 31.6 µM | 39.8 µM | 1.26 µM |  |  |  | 
COc1ncc(-c2ccc3c(Nc4cc(C(=O)O)cc(C5CCCC5)c4)c(S(=O)(=O)NC4CC4)cnc3c2)c(OC)n1 [Compound 2] | 0.6 ± 0.2 µM | 31.6 µM |  |  | 39.8 µM |  |  |  |  |  | 31.6 µM | 50.1 µM | 100 µM | 0.501 µM | 0.016 ± 0.007 µM | 15.8 µM | 0.22 ± 0.02 µM | 0.067 µM
